Values quoted from earlier work in patent US8652545B2, “Composition of a liquid dietary supplement to treat symptoms of autism spectrum disorders in children” (Reverta Health Solutions LLC, priority 2008, dated 2014).

What was measured:
[1] = in vivo
[2] = in vivo; remark: listed apart in the source
[3] = test system: individuals diagnosed with autism; details: high doses, given with magnesium; Nye and Brice (2005)

Which results are given for CCNC(=O)CC[C@H](N)C(=O)O [Theanine]?
crossing of the blood-brain barrier [1]: easily crosses the blood-brain barrier; sleep [2]: promote a more restful deep sleep; stress [2]: reduce stress

For Cc1ncc(CO)c(CO)c1O.Cl [vitamin B6, Vitamin B6], which “benefit in individuals diagnosed with autism” value [3] is on record?
Its value is “extremely beneficial”.
